Holding throughout (test): NCI anticancer screen, dose series, 48 h
The test system of experiment [1] is 786-0 renal.
For experiment [2], the system named is A549 NSCLC.
Experiment [3] has as its system ACHN renal.
Experiment [4] relates to CCRF-CEM leukemia.
The test system of experiment [5] is HCT-116 colon.
Experiment [6] deals with SK-OV-3 ovarian.
Experiment [7] has as its system SN12C renal.
Experiment [8] relates to SW-620 colon.
The test system of experiment [9] is TK-10 renal.

Where “and” joins values, the source holds several entries; their conditions need not be identical. Identical values can stand only once.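 Where inhibition never reached the appropriate level, the endpoint shown equals the highest concentration tested. Otherwise, values were interpolated linearly from a five-concentration, 48-hour dose response in 96-well plates. GI50 is the concentration that inhibits growth by half. At the TGI there is no net growth.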

On to `CCCCCCCCCCCCCCCC(=O)N[C@H]1CCc2cc(OC)c(OC)c(OC)c2-c2ccc(SC)c(=O)cc21`, for which the GI50 is 3.31 µM in [1]; 3.63 µM in experiment [2]; 3.88 µM in experiment [3]; 2.68 µM in [4]; 1.04 µM in experiment [5]; 2.84 µM in [7]. In addition, the figures for the GI50 in [8] and in experiment [9] were 2.1 µM and 27.9 µM, respectively. Further, the TGI in experiment [1] is 8.24 µM and 12.9 µM; in experiment [2], 13.1 µM and 14.4 µM; in [3] it was 22.4 µM and 19.7 µM; in experiment [4] it was 11.4 µM and 15.3 µM; in experiment [5], 3.67 µM and 3.49 µM; in experiment [6] it was 6.19 µM. The TGI in experiment [7] is 9.08 µM and 10.3 µM; in [8] it was 15.6 µM and 10.8 µM; in experiment [9], 35.8 µM and > 100 µM.

As to `O=C1CC2Sc3ccccc3N=C2N1c1ccc(Cl)cc1Cl` (stereo not given), the TGI in [1] was greater than 100 µM; in experiment [2], greater than 100 µM; in experiment [3], greater than 100 µM; in experiment [4] it was 52.9 µM; in [5], greater than 100 µM; in experiment [7] it was greater than 100 µM. The TGI in experiment [8] and in [9] was greater than 100 µM each time.

Turning to `COc1cc2cc3c4c(cc(OC)c(OC)c4c2cc1OC)CCN3C(=O)OCCBr`, the TGI is greater than 100 µM in [1]; greater than 100 µM in experiment [2]; greater than 100 µM in experiment [3]; 88.2 µM in experiment [4]; greater than 100 µM in experiment [5]; greater than 100 µM in experiment [6]. The TGI in experiment [7], in [8] and in [9] was greater than 100 µM in each case.

`CCN1CC2(C)CC[C@@H](OC)C34[C@@H]2[C@H](OC(C)=O)C2(OCO[C@@]25C[C@H](OC)C2C[C@]3(O)[C@@H]5[C@H]2O)[C@H]14`: the TGI in experiment [1], in [2], in experiment [5], in [7], in [8] and in experiment [9] was greater than 100 µM each time.

As for `Clc1ccccc1C1=NN(c2ccccc2)C2c3cc(Br)ccc3OCC12` (stereo not given), the TGI in experiment [1], in [2], in experiment [3], in experiment [4], in [5] and in experiment [6] was greater than 100 µM in each case. The TGI in [8] and in [9] was greater than 100 µM throughout.

Regarding `CC(C)=C1CCC(CN2CCCC2)C1=O` (stereo not given), the TGI is 30.8 µM in experiment [1]; greater than 100 µM in experiment [2]; 32.7 µM in [3]; 39 µM in experiment [4]; 31.6 µM in experiment [5]; 33.1 µM in experiment [7]. Further, the TGI in experiment [8] was 47.5 µM; in [9] it was greater than 100 µM.

On to `Cc1cccc(N2C(=O)/C(=C/c3ccc(N(CCC#N)CCC#N)cc3C)N=C2c2cc([N+](=O)[O-])ccc2Cl)c1`, for which the TGI in experiment [1], in experiment [2], in [3], in experiment [4], in experiment [5] and in experiment [6] was greater than 100 µM each time. Besides, the TGI in experiment [7], in [8] and in experiment [9] was greater than 100 µM each time.

For `O=C1/C(=C/c2ccccc2)CN(C(=O)Oc2ccc([N+](=O)[O-])cc2)C/C1=C\c1ccccc1`, the GI50 was 1.74 µM in [1]; 4.94 µM in [3]; 1.72 µM in [4]; 0.303 µM in experiment [5]; 3.45 µM in experiment [7]; 1.27 µM in experiment [8]. Moreover, the TGI in [1] was 3.55 µM; in experiment [4] it was 6.5 µM and 8.22 µM; in experiment [5], 1.65 µM and 1.08 µM; in experiment [7] it was 7.62 µM; in experiment [8] it was 2.47 µM.

Regarding `CC[C@@]1(O)C(=O)OCc2c1cc1n(c2=O)Cc2cc3c(NC(C)=O)c(O)ccc3nc2-1`, the GI50 was 0.373 µM in experiment [1]; 1.68 µM in experiment [2]; 0.389 µM in experiment [3]; 0.0542 µM in experiment [4]; 2.41 µM in experiment [5]; 1.4 µM in experiment [6]. For the same compound, the GI50 in experiment [7] was 0.456 µM; in experiment [8], 1.94 µM; in [9] it was greater than 71.4 µM. In addition, the TGI in experiment [1] is 2.17 µM; in experiment [2], greater than 100 µM; in experiment [3] it was 2.85 µM; in [4] it was 1.07 µM; in experiment [5], 24.6 µM; in experiment [6], 45.7 µM. The TGI is greater than 20.8 µM in [7], greater than 100 µM in [8] and greater than 100 µM in [9].

For `COc1ccccc1NC(=O)C(=O)C1C(=O)Nc2ccccc2S1=O` (stereo not given), the TGI in experiment [1], in experiment [2], in [3], in experiment [4], in [5] and in experiment [6] was greater than 100 µM in each case. The TGI in experiment [7], in [8] and in experiment [9] was greater than 100 µM in each case.

Consider `C/C(=N/Nc1ccc([N+](=O)[O-])cc1[N+](=O)[O-])C(CC(C(=O)Nc1ccccc1C)/C(C)=N\Nc1ccc([N+](=O)[O-])cc1[N+](=O)[O-])C(=O)Nc1ccccc1C` (stereo not given), for which the TGI was 41.3 µM in experiment [1]; 64.6 µM in experiment [2]; greater than 49.6 µM in [3]; greater than 100 µM in experiment [4]; 26.4 µM in experiment [5]; greater than 61.2 µM in [6]. Also, the TGI in experiment [7] is 12.7 µM; in [8] it was 42.3 µM; in experiment [9], 60.1 µM.

With `CCOC(=N)CC(=O)NC(C)c1ccccc1` (stereo not given), the TGI in experiment [1], in experiment [2], in experiment [3], in experiment [4], in experiment [5] and in experiment [6] was greater than 100 µM in each case. Besides, the TGI in [7], in experiment [8] and in experiment [9] was greater than 100 µM each time.

Consider `C/C(=N\NC(=S)N1CCC(C2CCN(C(=S)N/N=C(\C)c3ccccn3)CC2)CC1)c1ccccn1`, for which the TGI in experiment [1], in experiment [2], in experiment [3], in [4], in experiment [5] and in experiment [6] was greater than 100 µM throughout. The TGI in [7], in experiment [8] and in experiment [9] was greater than 100 µM each time.

Turning to `COC(=O)C(=O)C(C(=O)C(=O)Nc1ccccc1C(N)=O)c1nc2ccc(C(=O)c3ccccc3)cc2[nH]c1=O` (stereo not given), the TGI in experiment [1], in [2], in experiment [3], in experiment [4], in [5] and in experiment [7] was greater than 100 µM each time. For the same compound, the TGI in experiment [8] and in experiment [9] was greater than 100 µM throughout.

With `COc1ccc(-n2nc(C)c3c2N(C)C2(C)C[C@@H]4C3(C)[C@@H]3CC4(C2)N(C)c2c(c(C)nn2-c2ccc(OC)cc2)[C@H]3C)cc1` (stereo not given in full), the GI50 in experiment [1] is 5.47 µM; in [2] it was 3.29 µM; in experiment [3], 6.13 µM; in experiment [5], 2.09 µM; in [6], 2.53 µM; in experiment [7], 8.06 µM. Further, the GI50 in [9] is 4.77 µM. In addition, the TGI was 29.6 µM in experiment [1]; greater than 100 µM in experiment [2]; greater than 100 µM in experiment [3]; greater than 100 µM in experiment [5]; 9.54 µM in experiment [6]; greater than 100 µM in experiment [7]. In experiment [9], this compound returned a TGI of 21.3 µM.

Turning to `Cc1cccc(CC(C)(C)C)c1NC(=O)C(=O)C(C(=O)c1ccc2ccccc2c1)C1OC(=O)c2ccccc21` (stereo not given), the TGI in experiment [1] is 21.7 µM; in experiment [2], 40.9 µM; in [3], 56.2 µM; in [5], greater than 100 µM; in experiment [6] it was greater than 100 µM; in experiment [7], 36.9 µM. Moreover, the TGI in experiment [8] was found to be 38.7 µM.

As for `Cc1c(-c2coc(-c3ccc(Cl)cc3)n2)c(=O)n(-c2ccccc2)n1C`, the TGI in experiment [1], in experiment [2], in experiment [3], in experiment [4], in experiment [5] and in [6] was greater than 100 µM each time. Further, the TGI in experiment [7] and in experiment [9] was greater than 100 µM each time.

Regarding `COc1cc2c(c(OC)c1OC)-c1ccc(SC)c(=O)cc1[C@@H](NC(=O)c1ccc(C#N)cc1)CC2`, the TGI in experiment [1] was 20.9 µM; in experiment [2], greater than 100 µM; in experiment [3], greater than 100 µM; in experiment [5] it was 12.6 µM; in experiment [7] it was greater than 77.8 µM; in experiment [8], greater than 100 µM. Besides, in experiment [9], the TGI was greater than 100 µM.

Turning to `Fc1nc(F)nc(-c2c3ccccc3c3n2CCS3)n1`, the TGI in [1], in [2], in experiment [3], in experiment [4], in experiment [5] and in experiment [6] was greater than 100 µM throughout. The TGI in experiment [7] and in experiment [8] was greater than 100 µM throughout.

Regarding `O=C1c2ccccc2C(=O)c2c1ccc1c3ccccc3n(Cc3ccccc3)c21`, the TGI in experiment [1], in experiment [2], in experiment [3], in [4], in [5] and in [6] was greater than 100 µM in each case. For the same compound, the TGI in experiment [7] and in experiment [8] was greater than 100 µM throughout.

The values are drawn from PubChem BioAssay (NCI).
